What was measured:
[1] = Phase solubility analysis of abiraterone-HPBCD; format: physicochemical; conditions: with HPBCD, in 0.01N HCl and FaSSIF
Protocol: Phase Solubility Analysis. Phase solubility analysis was conducted in two separate media, i.e., 0.01N HCl (pH 2.0) and FaSSIF (prepared in 50 mMol Phosphate Buffer pH 6.8). Solutions of HPBCD ranging from 0 mg/mL to 600 mg/mL were prepared in each media in scintillation vials. An excess of abiraterone was added to each vial and the vials were sonicated for 30 minutes and placed on a bench. Samples were pulled from each vial at time points of 48 hrs and 7 days. The samples were centrifuged using an ultracentrifuge (Eppendrof, Hamburg, Germany) The supernatants were further diluted using the HPLC diluent and analyzed by HPLC method mentioned above to find the concentration of abiraterone.

[2] = cited from earlier work
[3] = tested on: 22RV1 human prostate tumor xenograft; assay: Anti-tumor activity in 22RV1 human prostate tumor xenograft model; format: in vivo, CB.17 SCID mice; conditions: low and high doses, once-daily oral gavage
Protocol: The objective of the xenograft mice study was to determine the anti-tumor activity of a composition made per Example 2.4 as a single agent versus abiraterone acetate in the 22RV1 human prostate tumor xenograft model. The study was conducted in CB.17 SCID mice injected with 22RV1 cells (5×10^6 cells/mouse) in the subcutaneous right flank. Tumors were grown to a mean tumor size between 100 and 150 mm^3 prior to study enrollment. The mice were dosed with the test article and reference once-daily by oral gavage per Table 12. Tumor volume was measured throughout the study. The study was terminated on day 26 when mean tumor volume of two experimental groups reached≥1500 mm^3.

[4] = tested on: prostate specific antigen (PSA); conditions: 1,000 mg daily, well controlled trials; cited from earlier work

SMILES | type of solution state phase solubility profile (Higuchi and Connors) [1] | pKa [2] | tumor growth relative to vehicle control [3] | treated patients achieving target PSA reductions [4]
C[C@]12CC[C@H](O)CC1=CC[C@@H]1[C@@H]2CC[C@]2(C)C(c3cccnc3)=CC[C@@H]12 [Abiraterone, (3β)-17-(3-pyridinyl)androsta-5,16-dien-3-ol] | A-type | 4.81 |  | 
CC(=O)O[C@H]1CC[C@@]2(C)C(=CC[C@@H]3[C@@H]2CC[C@]2(C)C(c4cccnc4)=CC[C@@H]32)C1 [Abiraterone Acetate, (3β)-17-(3-pyridinyl)androsta-5, 16-dien-3-ol acetate] |  |  | did not result in statistically different tumor growth | up to 60%

Reference: patent US20220362264A1, “ABIRATERONE-CYCLIC OLIGOMER PHARMACEUTICAL FORMULATIONS AND METHODS OF FORMATION AND ADMINISTRATION THEREOF” (DISPERSOL TECHNOLOGIES, LLC., priority 2019, published 2022)
